Test system: TMD8 tumors
Assay: Efficacy in ectopic (subcutaneous) TMD8 tumor-bearing SCID/BEIGE mice, tumor volume
Type: in vivo, mouse
Conditions: 20 mgL/kg (unconjugated V)
Procedure: All animal experiments were performed according to procedures covered by permit number BS-1974, BS-1975 and BS-2904 issued by the Kantonales Veterinäramt Basel-Stadt and strictly adhered to the Eidgenössisches Tierschutzgesetz and the Eidgenössische Tierschutzverordnung. Female Sprague Dawley rat were obtained from Charles Rivers (Germany), female Balb/c mice from Charles Rivers (Italy) and female SCID/BEIGE (C.B-Igh-1b/GbmsTac-Prkdcscid-Lystbg N7) mice from Taconic. All the animals were housed in a pathogen-controlled environment with access to food and water ad libitum and they were identified with transponders.
Subcutaneous TMD8 tumors were induced by injecting tumor cells expanded in vitro in the right flank of SCID/BEIGE mice. As soon as the injection was finished, antagonization (naloxone, flumazenil and atipamezole injected s.c.) was injected and mice are put on a warming pad for recovery and carefully checked during that time.
For PK experiments, non-tumor bearing mice or rats were treated once (10 mL/kg) with a compound either i.v. or s.c. Serial blood samplings from the tail vein (5-20 μl) were collected during the course of the experiment. For PK/PD experiments in tumor-bearing mice, compound was administered once (10 mL/kg) either i.v. or s.c. Animals were randomized into groups of n=3 and tissue samples were collected at several time points. At the times indicated, animals were anaesthetized by exposure to 2-3% v/v isoflurane in medical oxygen. They were sacrificed without recovering from anesthetic after blood sampling into commercially prepared EDTA coated tubes (Milian, cat #TOM-14C) in order to extract plasma. The tissues were excised, weighted and rapidly frozen in liquid nitrogen. Later, tumors were cryogenic dry pulverized with the CryoPrep™ system (model CP-02, Covaris). For efficacy experiments in ectopic tumor-bearing mice, animals were randomized into groups of n=6 for a mean tumor size of 100 mm^3 and compound was administered either i.v. q3w or s.c. q2w. When implanted in brain, animals were randomized into groups of n=4 for a mean bioluminescence of 1.0-2.0E+06 [p/s]/[ρW/cm^2] and compound was administered i.v. qw. Tumor response were reported with the measures of tumor volumes or bioluminescence from the treatment start. Concentrations of compound in blood and tissues were determined simultaneously by UPLC/MS-MS. BTK and IL-10 levels in tumor were determined by Meso Scale Discovery (MSD).

## COc1ccc(C(=O)N2CCC3(CCN(CCc4ccc(-c5cc6c(-c7cc(F)cc(NC(=O)c8ccc(C(C)(C)O)cc8F)c7C)ncnc6[nH]5)cc4)CC3)CC2)cc1N1CCC(=O)NC1=O [Compound V, N-(3-(6-(4-(2-(9-(3-(2,4-Dioxotetrahydropyrimidin-1(2H)-yl)-4-methoxybenzoyl)-3,9-diazaspiro[5.5]undecan-3-yl)ethyl)phenyl)-7H-pyrrolo[2,3-d]pyrimidin-4-yl)-5-fluoro-2-methylphenyl)-2-fluoro-4-(2-hydroxypropan-2-yl)benzamide]
i.v.
  Dosing frequency to achieve sustained 90% regression: 2qw (85%)
s.c.
  Dosing frequency to achieve sustained 90% regression: Not tolerated

Reference: patent publication US20240216513A1, “FATTY ACID-BIFUNCTIONAL DEGRADER CONJUGATES AND THEIR METHODS OF USE” (Novartis AG, priority 2021, published 2024)
